Experimental data: patent publication US20100160351A1, “PHARMACEUTICAL COMPOSITIONS AND METHODS FOR TREATING HYPERURICEMIA AND RELATED DISORDERS” (NUON THERAPEUTICS, INC., priority 2008, published 2010)

System: monosodium urate (MSU) crystal-induced air pouch inflammation
Experiment: Air Pouch Model 1: MSU crystal air pouch, rodent model of gout
Type: in vivo, male Sprague-Dawley rats
Settings: for Average Exudate Volume / Average Plasma Extravasation, OD620 nm / Total WBC in Sample / WBC: +MSU, 4 h
Protocol: The objective of this study was to evaluate the anti-inflammatory affects of tranilast versus a clinically active treatment for gout, colchicine, as well as a clinically active non-steroidal antiinflammatory drug, indomethacin. This evaluation was carried out in male Sprague-Dawley rats in a rodent model of gout. The animals were injected subcutaneously with 20 ml of sterile air, followed three days later by a supplemental injection with 20 ml of sterile air. Six days after the initial sterile air injection, the rats were injected intravenously with Evan's Blue and pretreated for thirty minutes with either a subcutaneous injection of colchicine (1 mg/kg) or indomethacin (5 mg/kg) or oral administration with either 200 mg/kg or 400 mg/kg of tranilast. After the pretreatment period, the rats were injected with 150 mg of monosodium urate (MSU) crystals (10 mg·ml) into the air pouch. Four hours later, the air pouch was injected with 5 ml heparinized saline and the entire contents of the air pouch removed, recording the total volume. The air pouch contents were evaluated for plasma extravasation and total white blood cell (WBC) count.
(§1) On day 0 the rats were anesthetized in a biological cabinet, the nape of the neck was cleansed with 70% isopropanol followed by iodine tincture (VEDCO, lot L021976). Twenty ml sterile (0.22 μm, Fisher Scientific, Cat. 09-720-3, lot R5SN25683) air was injected subcutaneously using a 23 G×2 inch needle fixed to a 20 ml syringe. The rats were returned to routine housing. No adverse reactions were observed.
as §1, with “day 3” for “day 0”
On day 6 the rats were weighed (Mettler, Model PE3000, SN: F69474) and sorted into six treatment groups of ten animals each, based upon average weight. The animals were either dosed subcutaneously with 1 ml/kg colchicine or indomethacin, or orally with either 4 ml/kg or 8 ml/kg tranilast, or 8 ml/kg vehicle. Immediately after test material administration, the rats were intravenously injected with 2 ml/kg Evans Blue.
Thirty minutes after test material administration, the rats were anesthetized and five groups were injected into the air pouch with 15 ml MSU using an 18 G×1 inch needle fitted to a 20 ml syringe. The sixth group was injected with 15 ml saline. The rats were returned to their cages, no adverse affects were observed.
Four hours after MSU injection, the rats were anesthetized and 5 ml 10 U/ml heparinized saline was injected into the air pouch. The air pouch was gently massaged, the contents immediately removed using a 14 G×1 inch needle fitted to a 6 ml syringe, and the exudate volume recorded. An aliquot of the exudate was transferred to heparin-treated microtainer tubes (Becton Dickinson, Cat. 365958, lot 8093666, exp. June 09) for white blood cell (WBC) counting. The remainder of the exudate was centrifuged (Hermle Labrotechnik, Model Z200A, SN: 44060036), the supernatants removed and evaluated at OD620nm (Spectronic Unicam, Model 4000 1/4, SN: 3SGD003006) for plasma extravasation.

[1] = Group 4: tranilast 200 mg/kg oral
[2] = Group 5: tranilast 400 mg/kg oral
[3] = oral tranilast 30 min before MSU, regardless of dose (200 or 400 mg/kg)

**Q.** Which “Average Exudate Volume” value [1] does the source give for `COc1ccc(/C=C/C(=O)Nc2ccccc2C(=O)O)cc1OC` [Tranilast, 2-[[3-(3,4-dimethoxyphenyl)-1-oxo-2-propenyl]amino]benzoic acid] here?
**A.** 6.5 mL

**Q.** And the “Average Plasma Extravasation, OD620 nm” value [1]?
**A.** 0.697

**Q.** And the “Total WBC in Sample” value [1]?
**A.** 15925556

**Q.** What about the WBC [1] of the same compound?
**A.** 2524444 cells/ml

**Q.** And the “Average Exudate Volume” value [2]?
**A.** 5.3 mL

**Q.** What about the “Average Plasma Extravasation, OD620 nm” value [2] of the same compound?
**A.** 0.626

**Q.** What about the “Total WBC in Sample” value [2] of the same compound?
**A.** 15162222

**Q.** And the WBC [2]?
**A.** 3144444 cells/ml

**Q.** What about the “inhibition of plasma extravasation” value [3] of the same compound?
**A.** 60%

**Q.** What about the “inhibition of white blood cell infiltration” value [3] of the same compound?
**A.** 95%
